Results reported in patent US20220000117A1, “METHOD FOR CONTROLLING DISEASES IN SMALL GRAIN CEREALS, SEED OF SMALL GRAIN CEREALS, AND METHOD FOR SUPPRESSING LODGING DAMAGE IN SMALL GRAIN CEREALS” (KUMIAI CHEMICAL INDUSTRY CO., LTD., priority 2019, published 2022).

Key:
[1] = tested on: wheat (variety: Norin No. 61); assay: Test Example 4: emergence rate of wheat seed; format: in vivo
Experimental: Seed having a mass of 1 kg of wheat (variety: Norin No. 61) was mixed into 100 ml of suspension water containing 0.5 g of the above compound (6) or compound (3) (synthesis was performed in accordance with a known method, formulated 10% wettable powder was used) and air-dried, and then, 12 seeds were sown in a plastic cup having a diameter of 6 cm containing river sand and managed in a greenhouse. The number of emerged seeds was investigated nine days after seeding, and an emergence rate was calculated (Examples 10 and 11). In Comparative Example 11 and Comparative Example 12, 20 ml of suspension water of an active ingredient, which had been adjusted to have a concentration shown in Table 5, was sprayed in a frame of 45 cm×45 cm in which a pot of wheat seedlings was placed (corresponding to 1000 L/ha) 15 days after seeding. On day 15 after seeding, conidiospores of powdery mildew were sifted over leaves of wheat seedlings and inoculated onto the leaves (after the sprayed liquid was dried in the case of Comparative Examples), a lesion area ratio of powdery mildew in a first leaf was investigated 22 days after seeding according to the criteria in Table 1, and the degree of disease occurrence was calculated by the above calculation formula (1).

powdery mildew = assay: Test Example 9: control test of wheat powdery mildew, cup in greenhouse, inoculated, Norin No. 61 (Tables 10 to 14); format: in vivo, Blumeria graminis; set-up: key to Degree of Disease Occurrence: Σ(index×leaves)/(4×leaves investigated)×100; 0 = no disease, 100 = max; details: Table 10 run, first leaf, 21 days after seeding
Experimental: (§1) Degree of Disease Occurrence=Σ(Index×Number of Leaves of Index)/(4×Number of Investigated Leaves)×100 (1)
Seed of wheat (variety: Norin No. 61) was used, and 100 ml of suspension waters each containing the compound shown in Table 10 at an amount shown in […] (synthesis was performed in accordance with a known method, a solution dissolved in DMSO or formulated 10% wettable powder was used) were prepared. The seed having a mass of 1 kg of wheat was mixed into the suspension water with a chemical treated amount shown in Table 10, and air-dried, and then, 5 seeds were sown in a plastic cup having a diameter of 6 cm containing river sand and managed in a greenhouse. In Comparative Examples, 20 ml of the suspension water of an active ingredient, which had been adjusted to have a concentration shown in Table 10, was sprayed in a frame of 45 cm×45 cm in which a pot of wheat seedlings was placed (corresponding to 1000 L/ha) 14 days after seeding. On day 14 after seeding, conidiospores of powdery mildew were sifted over leaves of wheat seedlings and inoculated onto the leaves (after the sprayed liquid was dried in the case of Comparative Examples), a lesion area ratio of powdery mildew in a first leaf was investigated 21 days after seeding according to the criteria in Table 1, and the degree of disease occurrence was calculated by the above calculation formula (1).

septoria leaf blotch [2] = assay: Test Example 8: control test of septoria leaf blotch of wheat, cup in greenhouse, inoculated, wheat variety Apache; format: in vivo, Septoria tritici; set-up: key to Degree of Disease Occurrence: Σ(index×leaves of index)/(4×investigated leaves)×100; 0–100 scale; details: for Degree of Disease Occurrence: 31 days after seeding
Experimental: as §1
(§2) Seed having a mass of 1 kg of wheat (variety: Apache) was mixed into 100 ml of suspension water containing from 0.5 g or 5 g of the 3,4-dichloroisothiazole derivative of the compound (6) or (3) (synthesis was performed in accordance with a known method, formulated 10% wettable powder was used) and air-dried, and then, 12 seeds were sown in a plastic cup having a diameter of 6 cm containing river sand and managed in a greenhouse. The number of emerged seeds was investigated 12 days after seeding, and an emergence rate was calculated. In Comparative Examples 19 to 22, 20 ml of suspension water of an active ingredient, which had been adjusted to have a concentration shown in Table 9, was sprayed in a frame of 45 cm×45 cm in which a pot of wheat seedlings was placed (corresponding to 1000 L/ha) 12 days after seeding. A spore suspension in which conidiospores of septoria leaf blotch are suspended were sprayed and inoculated on leaves of wheat seedlings 12 days after seeding (after the sprayed liquid was dried in the case of Comparative Examples), a lesion area ratio of septoria leaf blotch in a second leaf was investigated 31 days after seeding according to the criteria in Table 1, and the degree of disease occurrence was calculated by the above calculation formula (1).

septoria leaf blotch [3] = assay: Test Example 10: control test of septoria leaf blotch of wheat, cup in greenhouse, inoculated, variety ARKEOS (Tables 15 to 19); format: in vivo, Septoria tritici
Experimental: as §1
Seed of wheat (variety: ARKEOS) was used, and 100 ml of suspension waters each containing the compound shown in Table 15 at an amount shown in Table 15 (synthesis was performed in accordance with a known method, a liquid dissolved in a small amount of DMSO or formulated 10% wettable powder was used) were prepared. Seed having a mass of 1 kg was mixed into the suspension water with a rate shown in Examples of Table 15, and air-dried, and then, 5 seeds were sown in a plastic cup having a diameter of 6 cm containing mixed soil of river sand and horticultural soil and managed in a greenhouse. In Comparative Examples, 20 ml of suspension water of an active ingredient, which had been adjusted to have a concentration shown in Table 15 to 19, was sprayed in a frame of 45 cm×45 cm in which a pot of wheat seedlings was placed (corresponding to 1000 L/ha) 14 days after seeding. On day 14 after seeding, a spore suspension in which conidiospores of septoria leaf blotch are suspended was sprayed and inoculated on leaves of wheat seedlings (after the sprayed liquid was dried in the case of Comparative Examples), a lesion area ratio of septoria leaf blotch in a second leaf was investigated approximately 35 days after seeding according to the criteria in Table 1, and the degree of disease occurrence was calculated by the above calculation formula (1).

wheat (variety: Apache) = assay: Test Example 8: emergence rate of wheat seed; format: in vivo
Experimental: as §2

[4] = Foliage Spray group, 50 ppm (50 g/ha) 15 days after seeding, emergence counted nine days after seeding
[5] = Seed Treatment 0.5 g/Seed 1 kg (50 g/ha), nine days after seeding
[6] = Foliage Treatment, spray 5 ppm (5 g/ha) day 14
[7] = Foliage Treatment, spray 50 ppm (50 g/ha) day 14
[8] = Seed Treatment 0.05 g/Seed 1 kg (5 g/ha)
[9] = Seed Treatment 0.5 g/Seed 1 kg (50 g/ha)
[10] = Foliage Treatment, spray 50 ppm suspension water (50 g/ha) day 12, second leaf
[11] = Foliage Treatment, spray 500 ppm suspension water (500 g/ha) day 12, second leaf
[12] = Seed Treatment 0.5 g/Seed 1 kg, inoculated day 12, second leaf
[13] = Seed Treatment 5 g/Seed 1 kg (500 g/ha), inoculated day 12, second leaf
[14] = Table 15, Foliage Treatment, spray 50 ppm (50 g/ha) day 14, second leaf, approximately 35 days after seeding
[15] = Table 15, Foliage Treatment, spray 500 ppm (500 g/ha) day 14, second leaf, approximately 35 days after seeding
[16] = Table 15, Seed Treatment 0.5 g/Seed 1 kg (50 g/ha), second leaf, approximately 35 days after seeding
[17] = Table 15, Seed Treatment 5 g/Seed 1 kg (500 g/ha), second leaf, approximately 35 days after seeding
[18] = Table 16, Foliage Treatment, spray 10 ppm suspension water (corresponding to 10 g/ha) 14 days after seeding, untreated 57.1
[19] = Table 16, Foliage Treatment, spray 10 ppm suspension water (corresponding to 10 g/ha) 14 days after seeding, untreated 93.3
[20] = Table 16, Foliage Treatment, spray 500 ppm suspension water (corresponding to 500 g/ha) 14 days after seeding, untreated 57.1
[21] = Table 16, Foliage Treatment, spray 500 ppm suspension water (corresponding to 500 g/ha) 14 days after seeding, untreated 93.3
[22] = Table 16, Seed Treatment, 0.1 g/Seed 1 kg (corresponding to 10 g/ha), untreated 57.1
[23] = Table 16, Seed Treatment, 0.1 g/Seed 1 kg (corresponding to 10 g/ha), untreated 93.3
[24] = Table 16, Seed Treatment, 5 g/Seed 1 kg (corresponding to 500 g/ha), untreated 57.1
[25] = Table 16, Seed Treatment, 5 g/Seed 1 kg (corresponding to 500 g/ha), untreated 93.3
[26] = Foliage Treatment group, spray 50 ppm (50 g/ha) 12 days after seeding, emergence counted 12 days after seeding
[27] = Foliage Treatment group, spray 500 ppm (500 g/ha) 12 days after seeding, emergence counted 12 days after seeding
[28] = Seed Treatment 0.5 g/Seed 1 kg, 12 days after seeding
[29] = Seed Treatment 5 g/Seed 1 kg (500 g/ha), 12 days after seeding

SMILES	Emergence Rate (%) [1, 4]	Emergence Rate (%) [1, 5]	Degree of Disease Occurrence (powdery mildew; [6])	Disease Leaf Rate (%) (powdery mildew; [6])	Degree of Disease Occurrence (powdery mildew; [7])	Disease Leaf Rate (%) (powdery mildew; [7])	Degree of Disease Occurrence (powdery mildew; [8])	Disease Leaf Rate (%) (powdery mildew; [8])	Degree of Disease Occurrence (powdery mildew; [9])	Disease Leaf Rate (%) (powdery mildew; [9])	Degree of Disease Occurrence (septoria leaf blotch [2]; [10])	Degree of Disease Occurrence (septoria leaf blotch [2]; [11])	Degree of Disease Occurrence (septoria leaf blotch [2]; [12])	Degree of Disease Occurrence (septoria leaf blotch [2]; [13])	disease occurrence of septoria leaf blotch, seed treatment compared with spraying on foliage during a growing period (septoria leaf blotch [2])	Degree of Disease Occurrence (septoria leaf blotch [3]; [14])	Disease Leaf Rate (%) (septoria leaf blotch [3]; [14])	Degree of Disease Occurrence (septoria leaf blotch [3]; [15])	Disease Leaf Rate (%) (septoria leaf blotch [3]; [15])	Degree of Disease Occurrence (septoria leaf blotch [3]; [16])	also measured
OCc1snc(Cl)c1Cl [Compound (3)]	97.2%	97.2%	63.5	100.0%	56.3	100.0%	45.2	100.0%	14.8	59.4%	29.3	37.5	22.2	8.2	suppressed lower	29.3	97.0%	37.5	91.7%	22.2	Disease Leaf Rate (%) (septoria leaf blotch [3]; [16]): 77.8%; Degree of Disease Occurrence (septoria leaf blotch [3]; [17]): 8.2; Disease Leaf Rate (%) (septoria leaf blotch [3]; [17]): 32.8%; Degree of Disease Occurrence (septoria leaf blotch [3]; [18]): 62.5; Disease Leaf Rate (%) (septoria leaf blotch [3]; [19]): 100.0%; Degree of Disease Occurrence (septoria leaf blotch [3]; [20]): 77.4; Disease Leaf Rate (%) (septoria leaf blotch [3]; [21]): 100.0%; Degree of Disease Occurrence (septoria leaf blotch [3]; [22]): 40.6; Disease Leaf Rate (%) (septoria leaf blotch [3]; [23]): 96.9%; Degree of Disease Occurrence (septoria leaf blotch [3]; [24]): 40.4; Disease Leaf Rate (%) (septoria leaf blotch [3]; [25]): 85.7%; Emergence Rate (%) (wheat (variety: Apache); [26]): 97.2%; Emergence Rate (%) (wheat (variety: Apache); [27]): 97.2%; Emergence Rate (%) (wheat (variety: Apache); [28]): 97.2%; Emergence Rate (%) (wheat (variety: Apache); [29]): 86.1%
O=C(O)c1snc(Cl)c1Cl [Compound (6)]	100%	97.2%	56.3	100.0%	40.6	87.5%	48.5	93.8%	28.1	87.1%	29.5	48.5	16.1	4.2	suppressed lower	29.5	88.9%	48.5	100.0%	16.1	Disease Leaf Rate (%) (septoria leaf blotch [3]; [16]): 58.8%; Degree of Disease Occurrence (septoria leaf blotch [3]; [17]): 4.2; Disease Leaf Rate (%) (septoria leaf blotch [3]; [17]): 16.9%; Degree of Disease Occurrence (septoria leaf blotch [3]; [18]): 53.3; Disease Leaf Rate (%) (septoria leaf blotch [3]; [19]): 100.0%; Degree of Disease Occurrence (septoria leaf blotch [3]; [20]): 86.2; Disease Leaf Rate (%) (septoria leaf blotch [3]; [21]): 95.2%; Degree of Disease Occurrence (septoria leaf blotch [3]; [22]): 34.7; Disease Leaf Rate (%) (septoria leaf blotch [3]; [23]): 84.4%; Degree of Disease Occurrence (septoria leaf blotch [3]; [24]): 41.3; Disease Leaf Rate (%) (septoria leaf blotch [3]; [25]): 95.0%; Emergence Rate (%) (wheat (variety: Apache); [26]): 97.2%; Emergence Rate (%) (wheat (variety: Apache); [27]): 94.4%; Emergence Rate (%) (wheat (variety: Apache); [28]): 88.9%; Emergence Rate (%) (wheat (variety: Apache); [29]): 88.9%
